Tests used:
Pythium ultimum [1] = test: Fungal growth on the surface of soil infected with damping-off disease organism; assay type: in vivo; details: 6 days, 25° C.
Description: (§1) A one week old maize meal/sand culture of the damping-off disease organism Pythium ultimum was thoroughly mixed by hand with clean sterile John Innes No. 1 potting compost in the ratio of 3 kg culture to 12 liters of soil. The infected soil was then left for approximately 18 hours before use. Each of the compounds listed below was ground together with a wetting agent, Tween 20 (1% of final volume), until a solution or fine suspension was produced which was then diluted with distilled water to give 160 ml of solution containing 1500, 500, 150 or 50 ppm active ingredient. 15 ml aliquots of this solution were added to 75 g portions of the soil infected with Pythium ultimum which were contained in small plastic cartons, 60 mm diameter×55 mm high. Fifteen cabbage seeds, variety Flower of Spring, were placed in a circular depression in the treated infected soil, recovered, and the whole sealed with a plastic cap. The cartons were then placed in a constant temperature room at 25° C.±1° C. Four replications per treatment were made with one additional treatment where seeds were sown in soil which was chemically treated only, i.e. there was no infection. This latter treatment was included to measure the direct effect of the chemical on the germination of the seed. After six days the cartons were removed from the controlled temperature chamber and assessed for degree of fungal growth on the soil surface and percentage of seedling emergence. The results of both these assessments are expressed in a 0-8 scale as follows:
(§2) One week old maize meal/sand culture of the damping-off disease organism Pythium ultimum was thoroughly mixed by hand with clean sterile John Innes No. 1 potting compost in the ratio of 3 kg culture to 12 liters of soil. This infected soil was then left for approximately 18 hours before use. The compounds listed in the Table below were each ground with the wetting agent Tween 20 (1% of final volume), until a solution or fine suspension was produced, which was then diluted with distilled water to give 160 ml of solution containing 1500 or 500 parts per million (ppm) active ingredient. 15 ml aliquots of this solution were added to 75 g portions of the soil infected with Pythium ultimum which were contained in small plastic cartons, 60 mm diameter×55 mm high.
(§3) Fifteen cabbage seeds, variety Flower of Spring, were placed in a circular depression in the treated infected soil, recovered, and the whole sealed with a plastic cap. The cartons were then placed in a constant temperature room at 25° C.±1° C. Four replications per treatment were made, with one additional treatment where seeds were sown in soil which was chemically treated only, i.e. there was no infection. This latter treatment was included to measure the direct effect of the chemical on the germination of the seed.
(§4) After six days, the cartons were removed from the controlled temperature chamber and assessed for degree of fungal growth on the soil surface and percentage of seedling emergence. The results of both these assessments are expressed in a 0-8 scale as follows:
(§5) N-(2-oxopropyl)-3',4'-dimethyl-methanesulphonanilide was tested at a dose rate of 300 ppm in the test described in Examples 233 and 234. It gave a mycelial control score of 0 and a germination score of 3 whereas the untreated samples gave a score of 0 for both.

[2] = test system: cabbage seeds, variety Flower of Spring; test: Phytotoxicity of chemical alone on cabbage seed germination (chemical only soil treatment); assay type: in vivo
Description: as §3, with “seed. and are given in the following table. Any phytotoxicity induced by the chemical alone is deduced from the chemical only soil treatment.” for “seed.”

[3] = test system: vine downy mildew, Plasmopara viticola; test: Vine downy mildew control on vine plants (application to soil and leaves); assay type: in vivo; details: 2000 ppm, 12 days, controls less than 5%
Description: Aqueous acetone solutions of each of the compounds listed in the Table below, containing 2000 parts per million (ppm), together with 125 ppm of a suitable wetting agent, were applied to the soil surrounding the roots and leaves of vine plants having five fully expanded leaves.
The treated plants, together with controls treated with wetting agent alone, were inoculated 24 hours after the chemical application with an aqueous suspension of sporangia of the disease organism known as vine downy mildew, Plasmopara viticola.

Pythium ultimum [4] = test: Cabbage seedling emergence in soil infected with Pythium ultimum; assay type: in vivo, Pythium ultimum (on cabbage, variety Flower of Spring); details: 6 days, 25° C.
Description: as §1, §2, §3, §4, §5

acetylcholinesterase = test: Standard test indicative of insecticidal activity: inhibition of acetylcholinesterase; assay type: biochemical; details: 100 micromolar concentration
[5] = 100 ppm, 0-8 scale (Examples 233, 234)
[6] = 300 ppm, 0-8 scale (Examples 233, 234, 268)

SMILES | Mycelial Control Score (Pythium ultimum [1]; [5]) | Mycelial Control Score (Pythium ultimum [1]; [6]) | Phytotoxicity Score ([2]; 100 ppm) | Phytotoxicity Score ([2]; 300 ppm) | % Control Vine Downing Mildew [3] | Germination Score (Pythium ultimum [4]; [5]) | Germination Score (Pythium ultimum [4]; [6]) | inhibition of acetylcholinesterase (acetylcholinesterase)
COC(C)(CN(c1c(C)cccc1Cl)S(C)(=O)=O)OC [Example 222, N-(2,2-dimethoxypropyl)-2'-chloro-6'-methyl-methanesulphonanilide] | 3 (45-54% inhibition) | 4 (55- 64% inhibition) | 0 | 0 | 94% | 1 (20-34% inhibition) | 1 (20-34% inhibition) | –
CNC(=O)ON=C(C)CN(c1c(C)cccc1C)S(C)(=O)=O [Example 248, N-[2-(methylcarbamoyloxyimino)propyl]-2',6'-dimethylmethanesulphonanilide] | – | – | – | – | – | – | – | 30%

Reference: US4309559A, “Sulphonamides useful as pesticides” (FBC Limited, priority 1977, dated 1982)
